# Experimental data: patent US20230399358A1, “IMMUNOGLOBULIN PURIFICATION PEPTIDES AND THEIR USE” (North Carolina State University, priority 2019, published 2023)
# What was measured:
# human polyclonal IgG = assay: Isothermal titration calorimetry (ITC) of IgG:ligand binding in solution; details: 25° C, PBS pH 7.4, peptide in solution, independent binding model
# Protocol: Measurements of IgG-binding affinity in solution by isothermal titration calorimetry (ITC): Experimental determination of the binding free energy of the IgG:WQRHGI (SEQ ID NO:1) complex was performed by ITC using a Nano ITC Low Volume calorimeter (TA Instruments, New Castle, DE). […] All solutions were filtered through a 0.22 p.m syringe filter prior to use. Ten injections were performed for each measurement. Background energy from peptide dilution was determined by performing 10 injections of 5 μL of a 2 mg/mL solution of WQRHGI (SEQ ID NO:1) in PBS pH 7.4. The titration data were analyzed using NanoAnalyze software (TA Instruments) and plotted using an independent fitting, which fits the resultant Wiseman plot with parameters corresponding to a non-competitive single-site binding phenomenon in order to calculate the binding affinity (K(D(ITC)), and the stoichiometry (N) of the interaction. A constant blank was also utilized in the fitting to account for the heat of dilution of the IgG substrate.
# Characterization of binding affinity for IgG-binding peptide variants WQRHGI (SEQ ID NO:1) and MWRGWQ (SEQ ID NO:2) in non-competitive conditions: Candidate peptide ligands WQRHGI (SEQ ID NO:1) and MWRGWQ (SEQ ID NO:2) were selected for experimental evaluation of IgG binding in non-competitive conditions (pure IgG in solution). […]
# [1] = test system: human polyclonal IgG in CHO-S cell culture fluid; assay: Static purification of IgG from CHO cell culture supernatant on peptide-Toyopearl resins, SDS-PAGE densitometry; details: Gel B, lane E (pH 4)
# human IgG = type: binding; details: peptide on Toyopearl AF-amino-650M, 30 min, room temperature
# Protocol: Measurement of IgG binding by peptide-based chromatographic adsorbents: For initial studies, 35 mg of MWRGWQ (SEQ ID NO:2)-Toyopearl, RHLGWF (SEQ ID NO:3)-Toyopearl, WQRHGI (SEQ ID NO:1)-Toyopearl, GWLHQR (SEQ ID NO:4)-Toyopearl, and HWRGWV (SEQ ID NO:18)-Toyopearl (control) resins were equilibrated in PBS pH 7.4, reaching a swollen volume of 0.1 mL, and subsequently incubated with 1 mg/mL IgG in 0.205 mg/mL CHO cell culture supernatant for 30 minutes. The resins were subsequently washed several times with PBS to remove non-specifically bound proteins. Elution was performed with 100 mM glycine buffer pH 2.5. Flowthrough and elution fractions were collected and analyzed by SDS PAGE under reducing conditions. The resulting gels were stained with Coomassie staining. Further, 25 mg of the adsorbents MWRGWQ (SEQ ID NO:2)-Toyopearl, NIFRGWQ (SEQ ID NO:21)-Toyopearl, MWRAWQ (SEQ ID NO:5)-Toyopearl, MWRGFQ (SEQ ID NO:7)-Toyopearl, MWRGWN (SEQ ID NO:22)-Toyopearl, (NorL) WRGWQ (SEQ ID NO:23)-Toyopearl, MGRGWQ (SEQ ID NO:24)-Toyopearl, MWRWQ (SEQ ID NO:6)-Toyopearl, MWRGGQ (SEQ ID NO:26)-Toyopearl, GWRGWQ (SEQ ID NO:8)-Toyopearl, WQRHGI (SEQ ID NO:1)-Toyopearl, WNRHGI (SEQ ID NO:12)-Toyopearl, WQRAGI (SEQ ID NO:28)-Toyopearl, WQRHAI (SEQ ID NO:11)-Toyopearl, WQRHGL (SEQ ID NO:9)-Toyopearl, FQRHGI (SEQ ID NO:29)-Toyopearl, and WQRHGV (SEQ ID NO:10)-Toyopearl resins were equilibrated in PBS pH 7.4, reaching a swollen volume of 0.1 mL, and subsequently incubated with 1 mg/mL IgG in PBS at pH 7.4 for 30 minutes. The amount of unbound IgG in the supernatant samples was quantified by Bradford assay and utilized to determine the IgG binding % by the peptide variants.
# A limited library of residue-by-residue changes confirmed the importance of each residue in peptides WQRHGI (SEQ ID NO:1) and MWRGWQ (SEQ ID NO:2) in reducing the binding energy between the peptide and the IgG target. […] This was accomplished by designing and constructing an ensemble of 20 variants of peptides WQRHGI (SEQ ID NO:1) and MWRGWQ (SEQ ID NO:2). Selected residues in positions 1-6 were mutated. The peptide variants were synthesized directly on Toyopearl AF-amino-650M resin via Fmoc/tBu chemistry. The resulting adsorbents were incubated with a solution of human IgG at 2 mg/mL at a ratio of 1 mL of resin per 3.5 mL of solution for 30 min at room temperature. The residual concentration of IgG in solution was determined by Bradford concentration assay of the supernatants and utilized to calculate the amounts of bound IgG per volume of resin; Table 7 reports the % binding, defined as mg IgG bound by variant/mg IgG bound by original sequence (either WQRHGI (SEQ ID NO:1) or MWRGWQ (SEQ ID NO:2))×100%, of each sequence variant.
substance,measurement,setting,value
WQRHGI,Kd,human polyclonal IgG,58.8 µM
same,% Purity (IgG over total eluted proteins),[1],100%
same,% Binding (mg IgG bound by variant/mg IgG bound by original sequence × 100%),human IgG,100.00%
